Measured values published in PubChem BioAssay (NCI).
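Each compound was tested at five concentrations against cells in 96-well plates for 48 hours. TGI marks complete inhibition of growth.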

Legend:
Assay in all cases: NCI anticancer screen, dose series, 48 h
BT-549 breast = tested on: BT-549 breast
IGROV1 ovarian = tested on: IGROV1 ovarian
HOP-62 NSCLC = tested on: HOP-62 NSCLC
SK-MEL-5 melanoma = tested on: SK-MEL-5 melanoma
HCT-116 colon = tested on: HCT-116 colon
KM12 colon = tested on: KM12 colon
UO-31 renal = tested on: UO-31 renal
CAKI-1 renal = tested on: CAKI-1 renal
SF-268 CNS = tested on: SF-268 CNS
LOX IMVI melanoma = tested on: LOX IMVI melanoma
RXF 393 renal = tested on: RXF 393 renal
MALME-3M melanoma = tested on: MALME-3M melanoma
SW-620 colon = tested on: SW-620 colon
HL-60(TB) leukemia = tested on: HL-60(TB) leukemia
NCI-H226 lung = tested on: NCI-H226 lung
PC-3 prostate = tested on: PC-3 prostate
HOP-92 NSCLC = tested on: HOP-92 NSCLC
M14 melanoma = tested on: M14 melanoma
DU-145 prostate = tested on: DU-145 prostate
786-0 renal = tested on: 786-0 renal

SMILES	TGI (BT-549 breast) [µM]	TGI (IGROV1 ovarian) [µM]	TGI (HOP-62 NSCLC) [µM]	TGI (SK-MEL-5 melanoma) [µM]	TGI (HCT-116 colon) [µM]	TGI (KM12 colon) [µM]	TGI (UO-31 renal) [µM]	TGI (CAKI-1 renal) [µM]	TGI (SF-268 CNS) [µM]	TGI (LOX IMVI melanoma) [µM]	TGI (RXF 393 renal) [µM]	TGI (MALME-3M melanoma) [µM]	TGI (SW-620 colon) [µM]	TGI (HL-60(TB) leukemia) [µM]	TGI (NCI-H226 lung) [µM]	TGI (PC-3 prostate) [µM]	TGI (HOP-92 NSCLC) [µM]	TGI (M14 melanoma) [µM]	TGI (DU-145 prostate) [µM]	TGI (786-0 renal) [µM]
Oc1cccc2cc(Br)cnc12	> 100	51.5	> 100	48.1	> 42.7	> 100	> 76.1	> 100	> 33.9	> 39.7	88.2	> 100	> 100	4	> 100	> 100	74.2	51.8	> 100	> 100
O=C(NC(Nc1ccc(F)cc1)(C(F)(F)F)C(F)(F)F)C(C(F)(F)F)C(F)(F)F	> 100	> 51.5	> 100	> 100	> 100	> 100	> 62.5	> 100	> 100	> 100	> 100	> 100	> 100	15.1	> 100	> 100	> 100	> 100	> 100	> 100
O=c1oc2ccc(Cl)cc2cc1-c1cn2ccccc2n1	> 100	> 100	16.1	> 100	45.2	> 100	19.2	45.9	99.3	> 100	> 44.7	23.5	> 100	> 100	> 94.8	> 100	> 73.3	> 100	> 100	18
CCN(CC)/[N+]([O-])=N/OCOC(C)=O	> 100	> 100	> 100	> 100	> 100	> 100	> 100	> 100	> 100	> 100	> 100	> 100	> 100	> 100	> 100	> 100	> 100	> 100	> 100	> 100
O=C1N[C@@H]2c3c(Br)sc(Br)c3C(=O)[C@@H]2O1	24.1	11.6	42.7	18.4	2.78	26	24.8	2.37	28.7	3.54	4.95	7.63	4.04	1.96	28.8	18.7	11.8	3.81	28.2	19.8
N#Cc1nc(-c2ccccn2)oc1N	> 100	> 100	> 100	> 100	> 100	> 100	> 100	> 100	> 100	> 100	> 100	> 100	> 100	> 100	> 100	> 100	> 100		> 100	> 100
